Measured values from patent publication US11691972B2, “Compounds for targeted degradation of BRD9” (C4 Therapeutics, Inc., priority 2020, dated 2023).

These molecules were tested against T1, BRD9 (Homo sapiens, UniProt Q9H8M2) (assay: HiBiT BRD9 degradation assay in 293T.166 (BRD9-HiBiT) cells). Details: Table 1; 293T.166 cells, 2.0 hours; class symbols; read-out: HiBiT-Degradation 293T.166 BRD9 2.0 hours (DC50).
T1 sequence (Q9H8M2 1-597): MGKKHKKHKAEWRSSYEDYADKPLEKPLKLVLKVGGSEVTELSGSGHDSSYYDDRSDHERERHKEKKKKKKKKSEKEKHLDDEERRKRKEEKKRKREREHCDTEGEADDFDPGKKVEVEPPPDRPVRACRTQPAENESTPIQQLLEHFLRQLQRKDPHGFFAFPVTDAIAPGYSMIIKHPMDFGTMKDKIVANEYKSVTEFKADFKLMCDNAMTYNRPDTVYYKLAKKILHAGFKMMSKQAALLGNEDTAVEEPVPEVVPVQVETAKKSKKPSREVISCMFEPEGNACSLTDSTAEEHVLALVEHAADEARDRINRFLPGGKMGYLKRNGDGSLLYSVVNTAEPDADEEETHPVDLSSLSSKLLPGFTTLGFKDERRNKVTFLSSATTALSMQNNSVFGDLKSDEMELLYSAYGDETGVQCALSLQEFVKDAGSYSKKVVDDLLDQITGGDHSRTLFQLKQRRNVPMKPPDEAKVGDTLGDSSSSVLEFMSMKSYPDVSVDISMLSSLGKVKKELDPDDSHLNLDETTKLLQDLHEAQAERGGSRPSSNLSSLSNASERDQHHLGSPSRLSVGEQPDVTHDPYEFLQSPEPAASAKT
Type: cell-based
Design: endogenously expressing BRD9 with HiBiT fusion tag via CRISPR; host or cells: 293T.166 (BRD9-HiBiT), also expressing LgBiT ectopically
Protocol: Selected compounds were tested in a BRD9 degradation assay using the HiBit Method.
Dulbecco's modified Eagle medium (DMEM) without phenol red and fetal bovine serum (FBS) were purchased from Gibco (Grand Island, N.Y., USA). Nano-Glo® HiBiT Lytic Assay System was purchased from Promega (Madison, Wis., USA). 293T.166 (BRD9-HiBiT) cell line, endogenously expressing BRD9 with HiBiT fusion tag via CRISPR and ectopically expressing LgBiT tag, was purchased from Promega (Madison, Wis., USA). 293T.167 (BRD7-HiBiT) cell line, endogenously expressing BRD7 with HiBiT fusion tag via CRISPR and ectopically expressing LgBiT tag, was purchased from Promega (Madison, Wis., USA). 293T.92 (BRD4-HiBiT) cell line, endogenously expressing BRD4 with HiBiT fusion tag via CRISPR and ectopically expressing LgBiT tag, was generated in-house. Cell culture flasks and 384-well microplates were acquired from VWR (Radnor, Pa., USA).
BRD9 degradation was determined based on quantification of luminescent signal using Nano-Glo® HiBiT Lytic Assay kit. Test compounds were added to the 384-well plate from a top concentration of 10 μM with 11 points, half log titration in duplicates. 293T.166 cells were added into 384-well plates at a cell density of 10,000 cells per well. The plates were kept at 37° C. with 5% CO2 for 2 hours. BRD7 and BRD4 degradation was similarly determined with 293T.167 cells and 293T.92 cells, respectively. The cells treated in the absence of the test compound were the negative control and the cells without Nano-Glo® HiBiT Lytic reagent were the positive control. After 2-hour incubation, Nano-Glo® HiBiT Lytic Assay reagents were added to the cells. Luminescence was acquired on EnVision™ Multilabel Reader (PerkinElmer, Santa Clara, Calif., USA).

DC50, < 100 nM:
COc1cc(-c2cn(C)c(=O)c3cnccc23)cc(OC)c1CN1CCN(C(=O)CC2CCN(c3ccc(NC4CCC(=O)NC4=O)cc3C(F)(F)F)CC2)CC1 (single isomer, unassigned) [Compound 56]
COc1cc(-c2cn(C)c(=O)c3[nH]ncc23)cc(OC)c1CN1C[C@H]2CC(C(=O)N3CCC(c4ccc(NC5CCC(=O)NC5=O)cc4)CC3)C[C@H]2C1 (stereo partly drawn) [Compound 110, 3-[4-[1-[(3aR,6aS)-2-[[2,6-dimethoxy-4-(6-methyl-7-oxo-1H-pyrazolo[3,4-c]pyridin-4-yl)phenyl]methyl]-3,3a,4,5,6,6a-hexahydro-1H-cyclopenta[c]pyrrole-5-carbonyl]-4-piperidyl]anilino]piperidine-2,6-dione]
CN(C(=O)N1CCC(c2ccc(NC3CCC(=O)NC3=O)cc2)CC1)C1CCN(Cc2ccc(-c3cn(C)c(=O)c4cc(F)ccc34)cc2OC(F)(F)F)CC1 (stereo not drawn) [Compound 114]
COc1cc(-c2cn(C)c(=O)c3[nH]ncc23)cc(OC)c1CN1CCc2c(CN3CCC(c4ccc(NC5CCC(=O)NC5=O)cc4)CC3)cccc2C1 (stereo not drawn) [Compound 98]
Cc1c(-c2ccc(C(C)N3CCC(C4CCN(c5ccc(NC6CCC(=O)NC6=O)cc5F)CC4)CC3)c(OC(F)(F)F)c2)cn(C)c(=O)c1C (stereo not drawn) [Compound 91]
COc1cc(-c2cn(C)c(=O)c(C)c2C)cc(Cl)c1CN1CCC(C2CCN(c3ccc(NC4CCC(=O)NC4=O)cc3C(F)(F)F)CC2)CC1 (stereo not drawn) [Compound 85]
COc1cc(-c2cn(C)c(=O)c3[nH]ncc23)cc(Cl)c1C(=O)N1CCC(C2CCN(c3ccc(NC4CCC(=O)NC4=O)cc3F)CC2)CC1 (stereo not drawn) [Compound 216]
COc1cc(-c2cn(C)c(=O)c3cnccc23)cc(Cl)c1CN1CCC(N(C)C(=O)N2CCC(c3ccc(NC4CCC(=O)NC4=O)cc3)CC2)C(F)(F)C1 (stereo not drawn) [Compound 125]
COc1cc(-c2cn(C)c(=O)c3[nH]ncc23)cc(OC)c1CN1CCN(C(=O)CN2CCC(c3ccc(NC4CCC(=O)NC4=O)cc3)CC2)CC1 (single isomer, unassigned) [Compound 3]
COc1cc(-c2cn(C)c(=O)c3[nH]ncc23)cc(OC)c1CNc1cccc(C(=O)N2CCC(c3ccc(NC4CCC(=O)NC4=O)cc3)CC2)c1 (stereo not drawn) [Compound 166, 3-[4-[1-[3-[[2,6-dimethoxy-4-(6-methyl-7-oxo-1H-pyrazolo[3,4-c]pyridin-4-yl)phenyl]methylamino]benzoyl]-4-piperidyl]anilino]piperidine-2,6-dione]
COc1cc(-c2cn(C)c(=O)c3cnccc23)cc(OC)c1CN1CCc2cc(C3CCN(c4ccc(NC5CCC(=O)NC5=O)cc4C(F)(F)F)CC3)ccc2C1 (stereo not drawn) [Compound 231, 3-[4-[4-[2-[[2,6-dimethoxy-4-(2-methyl-1-oxo-2,7-naphthyridin-4-yl)phenyl]methyl]-3,4-dihydro-1H-isoquinolin-6-yl]-1-piperidyl]-3-(trifluoromethyl)anilino]piperidine-2,6-dione]
COc1cc(-c2cn(C)c(=O)c3[nH]ncc23)cc(OC)c1CN1CCN(C(=O)CN2CCC(c3ccc(NC4CCC(=O)NC4=O)cc3)CC2)CC1 (single isomer, unassigned) [Compound 2]
CCOc1cc(-c2cn(C)c(=O)c3[nH]ncc23)c(OC)cc1CN1CCN(C(=O)CN2CCC(c3ccc(NC4CCC(=O)NC4=O)cc3)CC2)CC1 (stereo not drawn) [Compound 22]
Cn1cc(-c2ccc(CN3CCC(N4CCN(c5ccc(NC6CCC(=O)NC6=O)cc5F)CC4)C(F)(F)C3)c(OC(F)(F)F)c2)c2ccncc2c1=O (stereo not drawn) [Compound 193]
COc1cc(-c2cn(C)c(=O)c3cnccc23)cc(Cl)c1CN1CCC(N2CCN(c3ccc(NC4CCC(=O)NC4=O)cc3F)CC2)C(F)(F)C1 (stereo not drawn) [Compound 177, 3-[4-[4-[1-[[2-chloro-6-methoxy-4-(2-methyl-1-oxo-2,7-naphthyridin-4-yl)phenyl]methyl]-3,3-difluoro-4-piperidyl]piperazin-1-yl]-3-fluoro-anilino]piperidine-2,6-dione]
COc1cc(-c2cn(C)c(=O)c3[nH]ncc23)cc(F)c1CN1CCN(C(=O)CC2CCN(c3ccc(NC4CCC(=O)NC4=O)cc3)CC2)CC1 (stereo not drawn) [Compound 49, 3-[4-[4-[2-[4-[[2-fluoro-6-methoxy-4-(6-methyl-7-oxo-1H-pyrazolo[3,4-c]pyridin-4-yl)phenyl]methyl]piperazin-1-yl]-2-oxo-ethyl]-1-piperidyl]anilino]piperidine-2,6-dione]
COc1cc(-c2cn(C)c(=O)c3cnccc23)cc(F)c1CC1CCN(C(=O)CC2CCN(c3ccc(NC4CCC(=O)NC4=O)cc3F)CC2)CC1 (stereo not drawn) [Compound 158, 3-[3-fluoro-4-[4-[2-[4-[[2-fluoro-6-methoxy-4-(2-methyl-1-oxo-2,7-naphthyridin-4-yl)phenyl]methyl]-1-piperidyl]-2-oxo-ethyl]-1-piperidyl]anilino]piperidine-2,6-dione]
COc1cc(-c2cn(C)c(=O)c3[nH]ncc23)cc(OC)c1CN1CCN(C(=O)CC2(O)CCN(c3ccc(NC4CCC(=O)NC4=O)cc3C(F)(F)F)CC2)CC1 (stereo not drawn) [Compound 68, 3-[4-[4-[2-[4-[[2,6-dimethoxy-4-(6-methyl-7-oxo-1H-pyrazolo[3,4-c]pyridin-4-yl)phenyl]methyl]piperazin-1-yl]-2-oxo-ethyl]-4-hydroxy-1-piperidyl]-3-(trifluoromethyl)anilino]piperidine-2,6-dione]
COc1cc(-c2cn(C)c(=O)c3[nH]ncc23)cc(OC)c1CN1CCN(CC(=O)N2CCC(c3ccc(NC4CCC(=O)NC4=O)cc3)CC2)CC1 (stereo not drawn) [Compound 37, 3-[4-[1-[2-[4-[[2,6-dimethoxy-4-(6-methyl-7-oxo-1H-pyrazolo[3,4-c]pyridin-4-yl)phenyl]methyl]piperazin-1-yl]acetyl]-4-piperidyl]anilino]piperidine-2,6-dione]
COc1cc(-c2cn(C)c(=O)c3[nH]ncc23)cc(OC)c1CN1CCN(C(=O)CN2CCC(c3ccc(OC4CCC(=O)NC4=O)cc3)CC2)CC1 (stereo not drawn) [Compound 21]
COc1cc(-c2cn(C)c(=O)c3cnccc23)cc(Cl)c1CN1CCc2c(cccc2CN2CCC(c3ccc(NC4CCC(=O)NC4=O)cc3)C(F)(F)C2)C1 (stereo not drawn) [Compound 99]
COc1cc(-c2cn(C)c(=O)c3[nH]ncc23)cc(OC)c1Cc1ccc(CC(=O)N2CCC(c3ccc(NC4CCC(=O)NC4=O)cc3)CC2)cc1 (stereo not drawn) [Compound 207, 3-[4-[1-[2-[4-[[2,6-dimethoxy-4-(6-methyl-7-oxo-1H-pyrazolo[3,4-c]pyridin-4-yl)phenyl]methyl]phenyl]acetyl]-4-piperidyl]anilino]piperidine-2,6-dione]
COc1cc(-c2cn(C)c(=O)c3cnccc23)cc(Cl)c1CN1CCC(N(C)C(=O)N2CCC(c3ccc(NC4CCC(=O)NC4=O)cc3)CC2)CC1 (stereo not drawn) [Compound 115]
Cc1c(-c2ccc(C(=O)N3CCC(N4CCN(c5ccc(NC6CCC(=O)NC6=O)cc5F)CC4)C(F)(F)C3)c(OC(F)(F)F)c2)cn(C)c(=O)c1C (stereo not drawn) [Compound 223]
COc1cc(-c2cn(C)c(=O)c3[nH]ncc23)cc(OC)c1CN1CCN(C(=O)CC2CCN(c3ccc(NC4CCC(=O)NC4=O)cc3C(F)(F)F)CC2)C(C)(C)C1 (stereo not drawn) [Compound 57]

Same assay, conditions: Table 2; 293T.166 cells, 2.0 hours; class symbols; read-out: HiBiT-Degradation 293T.166 BRD9 2.0 hours (DC50)

DC50, < 100 nM:
COc1cc(-c2cn(C)c(=O)c3ccccc23)cnc1CN1CCC(N2CCN(c3ccc(NC4CCC(=O)NC4=O)cc3F)CC2)C(F)(F)C1 (stereo not drawn) [Compound 261, 3-[4-[4-[3,3-difluoro-1-[[3-methoxy-5-(2-methyl-1-oxo-4-isoquinolyl)-2-pyridyl]methyl]-4-piperidyl]piperazin-1-yl]-3-fluoro-anilino]piperidine-2,6-dione]
COc1cc(-c2cn(C)c(=O)c(C)c2C)cc(Cl)c1CN1CCC(N2CCN(c3ccc(N(C)C4CCC(=O)NC4=O)cc3F)CC2)C(F)(F)C1 (stereo not drawn) [Compound 248]
